Four compounds from PubChem BioAssay AID2060497 (Molecular Pharmacology Branch, DTP, NCI, 2025) can be followed below.

One may read the IC50 as the concentration that inhibits the measured activity by half. Usually viability, T/C stands for the ratio of treated to control.
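Further: spheroids exposed to compounds for one week before readout.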
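Wherever viability, T/C is given: percent viability relative to DMSO vehicle wells taken as 100%.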

One test has as its system 317291-083-R-J1-PDC complex spheroids, viability. The test is described as follows: Anticancer human tumor 317291-083-R-J1-PDC patient-derived soft tissue sarcoma cell line growth inhibition [GQUAD]. Conditions: curve of first compound; second compound 0.0316 µM. The method in brief:
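Viability of tumor cells grown as complex spheroids with endothelial and stromal cells, exposed to drug combinations. Top concentration at or near clinical Cmax (else 10 microM), diluted in half-log increments.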
Take `CC(C)(O)C1CCC(Nc2ccc3ncc(-c4cccc(C(F)(F)F)c4)n3n2)CC1` (configuration not stated) + Cc1cnc(CNC(=O)c2c(=O)c3ccc(N4CCCN(C)CC4)nc3n3c2sc2ccccc23)cn1: the IC50 was 0.507 µM.

Turning to `C=CC(=O)N1CCN(c2nc(=O)n(-c3c(C)ccnc3C(C)C)c3nc(-c4c(O)cccc4F)c(F)cc23)C(C)C1` (configuration not stated) + Cc1[nH]c2ccc(F)cc2c1-c1nc2c3cccnc3c3ncccc3c2[nH]1, the IC50 was above 10 µM.

With `O=C(c1cc(Cc2n[nH]c(=O)c3ccccc23)ccc1F)N1CCN(C(=O)C2CC2)CC1` + CN(C)c1ccc(Nc2c3ccc(NC(=O)CCN4CCCC4)cc3nc3cc(NC(=O)CCN4CCCC4)ccc23)cc1, the 50% inhibitory concentration (IC50) amounted to 8.52 µM.

For `COc1ccc([C@@H](O)c2cc(-c3ncnc4cc(N5CCOCC5)ccc34)c(F)cc2Cl)nn1` + Cc1[nH]c2ccc(F)cc2c1-c1nc2c3cccnc3c3ncccc3c2[nH]1, the IC50 came out at 8.49 µM.

The test is the same for the next values; noted with them: curve of first compound; second compound 0.1 µM.
On to `CC(C)(O)C1CCC(Nc2ccc3ncc(-c4cccc(C(F)(F)F)c4)n3n2)CC1` (configuration not stated) + Cc1cnc(CNC(=O)c2c(=O)c3ccc(N4CCCN(C)CC4)nc3n3c2sc2ccccc23)cn1, for which the IC50 came to 0.342 µM.

As for `C=CC(=O)N1CCN(c2nc(=O)n(-c3c(C)ccnc3C(C)C)c3nc(-c4c(O)cccc4F)c(F)cc23)C(C)C1` (configuration not stated) + Cc1[nH]c2ccc(F)cc2c1-c1nc2c3cccnc3c3ncccc3c2[nH]1, the IC50 was above 10 µM.

With `O=C(c1cc(Cc2n[nH]c(=O)c3ccccc23)ccc1F)N1CCN(C(=O)C2CC2)CC1` + CN(C)c1ccc(Nc2c3ccc(NC(=O)CCN4CCCC4)cc3nc3cc(NC(=O)CCN4CCCC4)ccc23)cc1, the IC50 came out at 8.53 µM.

Take `COc1ccc([C@@H](O)c2cc(-c3ncnc4cc(N5CCOCC5)ccc34)c(F)cc2Cl)nn1` + Cc1[nH]c2ccc(F)cc2c1-c1nc2c3cccnc3c3ncccc3c2[nH]1: the 50% inhibitory concentration (IC50) stood at 7.3 µM.

The test is the same for the next values; noted with them: curve of first compound; second compound 0.316 µM.
Regarding `CC(C)(O)C1CCC(Nc2ccc3ncc(-c4cccc(C(F)(F)F)c4)n3n2)CC1` (configuration not stated) + Cc1cnc(CNC(=O)c2c(=O)c3ccc(N4CCCN(C)CC4)nc3n3c2sc2ccccc23)cn1, the 50% inhibitory concentration (IC50) came out at 0.0914 µM.

As for `C=CC(=O)N1CCN(c2nc(=O)n(-c3c(C)ccnc3C(C)C)c3nc(-c4c(O)cccc4F)c(F)cc23)C(C)C1` (configuration not stated) + Cc1[nH]c2ccc(F)cc2c1-c1nc2c3cccnc3c3ncccc3c2[nH]1, the IC50 was above 10 µM.

For the compound `O=C(c1cc(Cc2n[nH]c(=O)c3ccccc23)ccc1F)N1CCN(C(=O)C2CC2)CC1` + CN(C)c1ccc(Nc2c3ccc(NC(=O)CCN4CCCC4)cc3nc3cc(NC(=O)CCN4CCCC4)ccc23)cc1, the IC50 amounted to 9.79 µM.

In the case of `COc1ccc([C@@H](O)c2cc(-c3ncnc4cc(N5CCOCC5)ccc34)c(F)cc2Cl)nn1` + Cc1[nH]c2ccc(F)cc2c1-c1nc2c3cccnc3c3ncccc3c2[nH]1, the IC50 is above 10 µM.

The same test, now with this note: curve of first compound; second compound 1 µM.
Take `CC(C)(O)C1CCC(Nc2ccc3ncc(-c4cccc(C(F)(F)F)c4)n3n2)CC1` (configuration not stated) + Cc1cnc(CNC(=O)c2c(=O)c3ccc(N4CCCN(C)CC4)nc3n3c2sc2ccccc23)cn1: the IC50 is below 0.0316 µM.

With `C=CC(=O)N1CCN(c2nc(=O)n(-c3c(C)ccnc3C(C)C)c3nc(-c4c(O)cccc4F)c(F)cc23)C(C)C1` (configuration not stated) + Cc1[nH]c2ccc(F)cc2c1-c1nc2c3cccnc3c3ncccc3c2[nH]1, the IC50 was above 10 µM.

Consider `O=C(c1cc(Cc2n[nH]c(=O)c3ccccc23)ccc1F)N1CCN(C(=O)C2CC2)CC1` + CN(C)c1ccc(Nc2c3ccc(NC(=O)CCN4CCCC4)cc3nc3cc(NC(=O)CCN4CCCC4)ccc23)cc1, for which the half-maximal inhibitory concentration (IC50) is below 0.0316 µM.

For the compound `COc1ccc([C@@H](O)c2cc(-c3ncnc4cc(N5CCOCC5)ccc34)c(F)cc2Cl)nn1` + Cc1[nH]c2ccc(F)cc2c1-c1nc2c3cccnc3c3ncccc3c2[nH]1, the IC50 stood at 5.89 µM.

The test is the same for the next values; noted with them: curve of first compound; second compound 3.16 µM.
As for `CC(C)(O)C1CCC(Nc2ccc3ncc(-c4cccc(C(F)(F)F)c4)n3n2)CC1` (configuration not stated) + Cc1cnc(CNC(=O)c2c(=O)c3ccc(N4CCCN(C)CC4)nc3n3c2sc2ccccc23)cn1, the IC50 is below 0.0316 µM.

As to `C=CC(=O)N1CCN(c2nc(=O)n(-c3c(C)ccnc3C(C)C)c3nc(-c4c(O)cccc4F)c(F)cc23)C(C)C1` (configuration not stated) + Cc1[nH]c2ccc(F)cc2c1-c1nc2c3cccnc3c3ncccc3c2[nH]1, the IC50 is above 10 µM.

As for `O=C(c1cc(Cc2n[nH]c(=O)c3ccccc23)ccc1F)N1CCN(C(=O)C2CC2)CC1` + CN(C)c1ccc(Nc2c3ccc(NC(=O)CCN4CCCC4)cc3nc3cc(NC(=O)CCN4CCCC4)ccc23)cc1, the IC50 was below 0.0316 µM.

As to `COc1ccc([C@@H](O)c2cc(-c3ncnc4cc(N5CCOCC5)ccc34)c(F)cc2Cl)nn1` + Cc1[nH]c2ccc(F)cc2c1-c1nc2c3cccnc3c3ncccc3c2[nH]1, the concentration for half-maximal inhibition (IC50) is 3.91 µM.

Still in this test, the particulars now being: curve of first compound; second compound 10 µM.
As for `CC(C)(O)C1CCC(Nc2ccc3ncc(-c4cccc(C(F)(F)F)c4)n3n2)CC1` (configuration not stated) + Cc1cnc(CNC(=O)c2c(=O)c3ccc(N4CCCN(C)CC4)nc3n3c2sc2ccccc23)cn1, the IC50 is below 0.0316 µM.

With `C=CC(=O)N1CCN(c2nc(=O)n(-c3c(C)ccnc3C(C)C)c3nc(-c4c(O)cccc4F)c(F)cc23)C(C)C1` (configuration not stated) + Cc1[nH]c2ccc(F)cc2c1-c1nc2c3cccnc3c3ncccc3c2[nH]1, the IC50 turned out to be 5.95 µM.

`O=C(c1cc(Cc2n[nH]c(=O)c3ccccc23)ccc1F)N1CCN(C(=O)C2CC2)CC1` + CN(C)c1ccc(Nc2c3ccc(NC(=O)CCN4CCCC4)cc3nc3cc(NC(=O)CCN4CCCC4)ccc23)cc1: the IC50 was below 0.0316 µM.

As for `COc1ccc([C@@H](O)c2cc(-c3ncnc4cc(N5CCOCC5)ccc34)c(F)cc2Cl)nn1` + Cc1[nH]c2ccc(F)cc2c1-c1nc2c3cccnc3c3ncccc3c2[nH]1, the IC50 is 2.25 µM.

The test is the same for the next values; noted with them: second compound 0.0316 µM; first compound 0.0316 µM; stronger effect = lower value.
`CC(C)(O)C1CCC(Nc2ccc3ncc(-c4cccc(C(F)(F)F)c4)n3n2)CC1` (configuration not stated) + Cc1cnc(CNC(=O)c2c(=O)c3ccc(N4CCCN(C)CC4)nc3n3c2sc2ccccc23)cn1: the viability, T/C was 87.8%.

Take `C=CC(=O)N1CCN(c2nc(=O)n(-c3c(C)ccnc3C(C)C)c3nc(-c4c(O)cccc4F)c(F)cc23)C(C)C1` (configuration not stated) + Cc1[nH]c2ccc(F)cc2c1-c1nc2c3cccnc3c3ncccc3c2[nH]1: the viability, T/C was 112%.

In the case of `O=C(c1cc(Cc2n[nH]c(=O)c3ccccc23)ccc1F)N1CCN(C(=O)C2CC2)CC1` + CN(C)c1ccc(Nc2c3ccc(NC(=O)CCN4CCCC4)cc3nc3cc(NC(=O)CCN4CCCC4)ccc23)cc1, the viability, T/C was 107%.

With `COc1ccc([C@@H](O)c2cc(-c3ncnc4cc(N5CCOCC5)ccc34)c(F)cc2Cl)nn1` + Cc1[nH]c2ccc(F)cc2c1-c1nc2c3cccnc3c3ncccc3c2[nH]1, the viability, T/C is 103%.

The same test, now with this note: second compound 0.0316 µM; first compound 0.1 µM; stronger effect = lower value.
Consider `CC(C)(O)C1CCC(Nc2ccc3ncc(-c4cccc(C(F)(F)F)c4)n3n2)CC1` (configuration not stated) + Cc1cnc(CNC(=O)c2c(=O)c3ccc(N4CCCN(C)CC4)nc3n3c2sc2ccccc23)cn1, for which the viability, T/C was 76.5%.

In the case of `C=CC(=O)N1CCN(c2nc(=O)n(-c3c(C)ccnc3C(C)C)c3nc(-c4c(O)cccc4F)c(F)cc23)C(C)C1` (configuration not stated) + Cc1[nH]c2ccc(F)cc2c1-c1nc2c3cccnc3c3ncccc3c2[nH]1, the viability, T/C was 99.2%.

With `O=C(c1cc(Cc2n[nH]c(=O)c3ccccc23)ccc1F)N1CCN(C(=O)C2CC2)CC1` + CN(C)c1ccc(Nc2c3ccc(NC(=O)CCN4CCCC4)cc3nc3cc(NC(=O)CCN4CCCC4)ccc23)cc1, the viability, T/C was 88.7%.

`COc1ccc([C@@H](O)c2cc(-c3ncnc4cc(N5CCOCC5)ccc34)c(F)cc2Cl)nn1` + Cc1[nH]c2ccc(F)cc2c1-c1nc2c3cccnc3c3ncccc3c2[nH]1: the viability, T/C is 91.6%.

The same test, now with this note: second compound 0.0316 µM; first compound 0.316 µM; stronger effect = lower value.
For the compound `CC(C)(O)C1CCC(Nc2ccc3ncc(-c4cccc(C(F)(F)F)c4)n3n2)CC1` (configuration not stated) + Cc1cnc(CNC(=O)c2c(=O)c3ccc(N4CCCN(C)CC4)nc3n3c2sc2ccccc23)cn1, the viability, T/C is 72.1%.

`C=CC(=O)N1CCN(c2nc(=O)n(-c3c(C)ccnc3C(C)C)c3nc(-c4c(O)cccc4F)c(F)cc23)C(C)C1` (configuration not stated) + Cc1[nH]c2ccc(F)cc2c1-c1nc2c3cccnc3c3ncccc3c2[nH]1: the viability, T/C is 113%.

For the compound `O=C(c1cc(Cc2n[nH]c(=O)c3ccccc23)ccc1F)N1CCN(C(=O)C2CC2)CC1` + CN(C)c1ccc(Nc2c3ccc(NC(=O)CCN4CCCC4)cc3nc3cc(NC(=O)CCN4CCCC4)ccc23)cc1, the viability, T/C is 93.2%.

On to `COc1ccc([C@@H](O)c2cc(-c3ncnc4cc(N5CCOCC5)ccc34)c(F)cc2Cl)nn1` + Cc1[nH]c2ccc(F)cc2c1-c1nc2c3cccnc3c3ncccc3c2[nH]1, for which the viability, T/C was 105%.

The same test, now with this note: second compound 0.0316 µM; first compound 1 µM; stronger effect = lower value.
Take `CC(C)(O)C1CCC(Nc2ccc3ncc(-c4cccc(C(F)(F)F)c4)n3n2)CC1` (configuration not stated) + Cc1cnc(CNC(=O)c2c(=O)c3ccc(N4CCCN(C)CC4)nc3n3c2sc2ccccc23)cn1: the viability, T/C is 19%.

For `C=CC(=O)N1CCN(c2nc(=O)n(-c3c(C)ccnc3C(C)C)c3nc(-c4c(O)cccc4F)c(F)cc23)C(C)C1` (configuration not stated) + Cc1[nH]c2ccc(F)cc2c1-c1nc2c3cccnc3c3ncccc3c2[nH]1, the viability, T/C was 89.5%.

As for `O=C(c1cc(Cc2n[nH]c(=O)c3ccccc23)ccc1F)N1CCN(C(=O)C2CC2)CC1` + CN(C)c1ccc(Nc2c3ccc(NC(=O)CCN4CCCC4)cc3nc3cc(NC(=O)CCN4CCCC4)ccc23)cc1, the viability, T/C was 92.8%.

Regarding `COc1ccc([C@@H](O)c2cc(-c3ncnc4cc(N5CCOCC5)ccc34)c(F)cc2Cl)nn1` + Cc1[nH]c2ccc(F)cc2c1-c1nc2c3cccnc3c3ncccc3c2[nH]1, the viability, T/C was 79.6%.

The test is the same for the next values; noted with them: second compound 0.0316 µM; first compound 3.16 µM; stronger effect = lower value.
Turning to `CC(C)(O)C1CCC(Nc2ccc3ncc(-c4cccc(C(F)(F)F)c4)n3n2)CC1` (configuration not stated) + Cc1cnc(CNC(=O)c2c(=O)c3ccc(N4CCCN(C)CC4)nc3n3c2sc2ccccc23)cn1, the viability, T/C is 0.22%.

For `C=CC(=O)N1CCN(c2nc(=O)n(-c3c(C)ccnc3C(C)C)c3nc(-c4c(O)cccc4F)c(F)cc23)C(C)C1` (configuration not stated) + Cc1[nH]c2ccc(F)cc2c1-c1nc2c3cccnc3c3ncccc3c2[nH]1, the viability, T/C was 102%.
